Assay results reported in patent publication US11547697B2, “Heterocyclic compounds and uses thereof” (MILLENNIUM PHARMACEUTICALS, INC., priority 2009, dated 2023).
“Also recorded” adds a separate entry of the source. Like-named read-outs stand apart in the source and are kept apart here.

How the values were obtained:
HCT116 cells = experiment: Cell arrest assay, alone and in combination with MEK inhibitor; assay type: cell-based, human; settings: for Cell cycle arrest, single inhibitor versus DMSO control: 3 μM compound 54 or 0.3 μM PD0325901, 20 hours
Method: Cells are then incubated in the presence of DMSO or inhibitor for 20 hours. The number of cells at each stage in the cell cycle is determined and expressed as a percent of the total, with an increase in the number of cells arrested at pre-GO/G1 indicating effective inhibition of cell cycle progression.

[1] = system: lupus disease model mice (R2KO, BXSB or MLR/lpr); settings: B6.Sle1z.Sle3z model (T. Wu et al.); cited from earlier work
[2] = 5 μM, PBS pH 7.4, 37° C., 24 hours; cited from earlier work
p110β/p85α = p110β/p85α (Homo sapiens (Human), UniProt P42338); experiment: PI 3-Kinase (human) HTRF assay, p110β/p85α; assay type: biochemical; settings: read-out: PI3K β IC50
p110δ/p85α = p110δ/p85α (Homo sapiens (Human), UniProt O00329); experiment: PI 3-Kinase (human) HTRF assay, p110δ/p85α; assay type: biochemical; settings: read-out: PI3K δ IC50
[3] = system: tumor cells with a PI3Kα mutation (e.g., MDA-MB-361 and T47D); experiment: Proliferation of tumor cells with PI3Kα mutation; assay type: cell-based; settings: for IC50: Homo sapiens, T47D cells
p110γ = p110γ (Homo sapiens (Human), UniProt P48736); experiment: PI 3-Kinase (human) HTRF assay, p110γ; assay type: biochemical; settings: read-out: PI3K γ IC50
p110α/p85α = p110α/p85α (Homo sapiens (Human), UniProt P42336); experiment: PI 3-Kinase (human) HTRF assay, p110α/p85α; assay type: biochemical; settings: for IC50: read-out: PI3K α IC50
[4] = system: Human tumor cell lines (e.g., MCF7, U-87 MG, MDA-MB-468, PC-3); experiment: Tumor cell line proliferation assay (Alamar Blue); assay type: cell-based; settings: PC3 cells
Method: The ability of one or more subject compounds to inhibit tumor cell line proliferation is determined according to standard procedures known in the art. For instance, an in vitro cellular proliferation assay can be performed to measure the metabolic activity of live cells. The assay is performed in a 96 well microtiter plate using Alamar Blue reduction. Human tumor cell lines are obtained from ATCC (e.g., MCF7, U-87 MG, MDA-MB-468, PC-3), grown to confluency in T75 flasks, trypsinized with 0.25% trypsin, washed one time with Tumor Cell Media (DMEM+10% FBS), and plated in 90 ul at 5,000 cells/well in Tumor Cell Media. A compound disclosed herein is diluted in Tumor Cell Media and added in a 10 ul volume. Plates are incubated for 72 hours at 37 C and 5% CO2. A volume of 10 uL of Alamar Blue reagent is added to each well and plates are incubated for 3 hours at 37 C and 5% CO2. Alamar Blue fluoresce is read at 560Ex/590Em, and IC50 values are calculated using GraphPad Prism 5.

recombinant mTOR = recombinant mTOR (Homo sapiens (Human), UniProt P42345); experiment: mTOR inhibition assay (radiometric or LanthaScreen TR-FRET); assay type: biochemical; settings: read-out: MTORC IC50
Method: The compounds described herein can be tested against recombinant mTOR (Invitrogen) in an assay containing 50 mM HEPES, pH 7.5, 1 mM EGTA, 10 mM MgCl2, 2.5 mM, 0.01% Tween, 10 pM ATP (2.5 μCi of μ-32P-ATP), and 3 μg/mL BSA. R^at recombinant PHAS-1/4EBP1 (Calbiochem; 2 mg/mL) is used as a substrate. Reactions are terminated by spotting onto nitrocellulose, which is washed with 1M NaCl/1% phosphoric acid (approximately 6 times, 5-10 minutes each). Sheets are dried and the transferred radioactivity quantitated by phosphorimaging.
For instance, one can use Invitrogen's LanthaScreen™ Kinase assay to test the inhibitors of mTOR disclosed herein. This assay is a time resolved FRET platform that measures the phosphorylation of GFP labeled 4EBP1 by mTOR kinase. The kinase reaction is performed in a white 384 well microtitre plate. The total reaction volume is 20 ul per well and the reaction buffer composition is 50 mM HEPES pH7.5, 0.01% Polysorbate 20, 1 mM EGTA, 10 mM MnCl2, and 2 mM DTT. In the first step, each well receives 2 ul of test compound in 20% dimethylsulphoxide resulting in a 2% DMSO final concentration. Next, 8 ul of mTOR diluted in reaction buffer is added per well for a 60 ng/ml final concentration. To start the reaction, 10 ul of an ATP/GFP-4EBP1 mixture (diluted in reaction buffer) is added per well for a final concentration of 10 μM ATP and 0.5 μM GFP-4EBP1. The plate is sealed and incubated for 1 hour at room temperature. […] The plate is sealed, incubated for 1 hour at room temperature, and then read on a plate reader set up for LanthaScreen™ TR-FRET. Data is analyzed and IC50s are generated using GraphPad Prism 5.

[5] = system: MDA-MB-361 (PI3Kα/HER2 carcinoma) tumors; experiment: In vivo efficacy in xenogenic mouse model of breast cancer
Method: Blood glucose is monitored periodically following administration of treatment. […] The effect of the compounds on the localization/viability of marginal zone B cells in the spleen is also evaluated at the conclusion of treatment.

[6] = system: pAKT(S473), pAKT(T308), pS6, p4E-BP1 in MDA-MB-361, T47D, PC3 cells; experiment: Inhibition of PI3K pathway in tumor cells (Western blot of pAKT, pS6, p4E-BP1); assay type: cell-based; settings: FIG. 2; 0.1 μM, 1 μM, and 10 μM, about 2 hours
Method: Cells comprising one or more mutations in PI3Kα, including but not limited to breast cancer cells (e.g., MDA-MB-361 and T47D), and cells comprising one or more mutations in PTEN including but not limited to prostate cancer cells (e.g., PC3), are typically grown in cell growth media such as DMEM supplemented with fetal bovine serum and/or antibiotics, and grown to confluency. Cells are then treated with various concentrations of test compound for about 2 hours and subsequently lysed in cell lysis buffer. Lysates are subjected to SDS-PAGE followed by Western blot analysis to detect downstream signaling markers, including but not limited to pAKT(S473), pAKT(T308), pS6, and p4E-BP1.

[7] = system: 786-O cells, a human kidney carcinoma cell line; experiment: In vivo efficacy in 786-O xenograft (non-mutated PI3Kα); set-up: species or system mice; settings: FIG. 6
From the text: For example, a test compound is compared to a kinase inhibitor with specificity for mTor. […] FIG. 6 also provides biochemical potency data for the two compared inhibitors.

[8] = system: human umbilical vein endothelial cells (HUVEC); experiment: In vitro inhibition of angiogenesis, tube formation assay; assay type: cell-based; settings: FIG. 3
Method: Inhibition of angiogenesis in the presence of test compound is evaluated using a tube formation assay, such as by using a tube formation assay kit (e.g., commerically available from Invitrogen). Angiogenic capacity can be measured in vitro using an endothelial cell line, such as human umbilical vein endothelial cells (HUVEC). The assay is conducted according to the kit instructions, in the presence or absence of compound. Briefly, a gel matrix is applied to a cell culture surface, cells are added to the matrix-covered surface along with growth factors, with some samples also receiving an inhibitor compound, cells are incubated at 37° C. and 5% CO2 long enough for control samples (no compound added) to form tube structures (such as overnight), cells are stained using a cell-permeable dye (e.g., calcein), and cells are visualized to identify the degree of tube formation. Any decrease in tube formation relative to un-inhibited control cells is indicative of angiogenic inhibition. […] Based on doses tested and the corresponding degree of tube formation inhibition, IC50 values for tube formation are calculated. FIG. 3 also provides IC50 values for cell viability, which can be measured using any number of methods known in the art, such as staining methods that distinguish live from dead cells (e.g., Image-iT DEAD Green viability stain commercially available from Invitrogen).

[9] = system: p190 transduced leukemic cells; settings: about 70 mg/kg twice daily, p190 model; cited from earlier work
[10] = 5 μM, human plasma, 37° C.; cited from earlier work
[11] = system: PI3K/Akt/mTor signaling in blood cells; experiment: Kinase signaling in blood (phosflow); assay type: cell-based; settings: splenocytes or peripheral blood mononuclear cells, anti-CD3 stimulation
Method: PI3K/Akt/mTor signaling is measured in blood cells using the phosflow method (Methods Enzymol. 2007; 434:131-54). The advantage of this method is that it is by nature a single cell assay so that cellular heterogeneity can be detected rather than population averages. This allows concurrent distinction of signaling states in different populations defined by other markers. Phosflow is also highly quantitative. To test the effects of one or more compounds disclosed herein, unfractionated splenocytes, or peripheral blood mononuclear cells are stimulated with anti-CD3 to initiate T-cell receptor signaling. The cells are then fixed and stained for surface markers and intracellular phosphoproteins.
Similarly, aliquots of whole blood are incubated for 15 minutes with vehicle (e.g., 0.1% DMSO) or kinase inhibitors at various concentrations, before addition of stimuli to crosslink the T cell receptor (TCR) (anti-CD3 with secondary antibody) or the B cell receptor (BCR) using anti-kappa light chain antibody (Fab′2 fragments). After approximately 5 and 15 minutes, samples are fixed (e.g., with cold 4% paraformaldehyde) and used for phosflow. […] The level of phosphrylation of kinase substrates such as Akt and S6 are then measured by incubating the fixed cells with labeled antibodies specific to the phosphorylated isoforms of these proteins. The population of cells is then analyzed by flow cytometry.

[12] = read-out: T47D proliferation IC50
[13] = read-out: PC3 proliferation IC50

Sequence of recombinant mTOR (P42345 1360-2549): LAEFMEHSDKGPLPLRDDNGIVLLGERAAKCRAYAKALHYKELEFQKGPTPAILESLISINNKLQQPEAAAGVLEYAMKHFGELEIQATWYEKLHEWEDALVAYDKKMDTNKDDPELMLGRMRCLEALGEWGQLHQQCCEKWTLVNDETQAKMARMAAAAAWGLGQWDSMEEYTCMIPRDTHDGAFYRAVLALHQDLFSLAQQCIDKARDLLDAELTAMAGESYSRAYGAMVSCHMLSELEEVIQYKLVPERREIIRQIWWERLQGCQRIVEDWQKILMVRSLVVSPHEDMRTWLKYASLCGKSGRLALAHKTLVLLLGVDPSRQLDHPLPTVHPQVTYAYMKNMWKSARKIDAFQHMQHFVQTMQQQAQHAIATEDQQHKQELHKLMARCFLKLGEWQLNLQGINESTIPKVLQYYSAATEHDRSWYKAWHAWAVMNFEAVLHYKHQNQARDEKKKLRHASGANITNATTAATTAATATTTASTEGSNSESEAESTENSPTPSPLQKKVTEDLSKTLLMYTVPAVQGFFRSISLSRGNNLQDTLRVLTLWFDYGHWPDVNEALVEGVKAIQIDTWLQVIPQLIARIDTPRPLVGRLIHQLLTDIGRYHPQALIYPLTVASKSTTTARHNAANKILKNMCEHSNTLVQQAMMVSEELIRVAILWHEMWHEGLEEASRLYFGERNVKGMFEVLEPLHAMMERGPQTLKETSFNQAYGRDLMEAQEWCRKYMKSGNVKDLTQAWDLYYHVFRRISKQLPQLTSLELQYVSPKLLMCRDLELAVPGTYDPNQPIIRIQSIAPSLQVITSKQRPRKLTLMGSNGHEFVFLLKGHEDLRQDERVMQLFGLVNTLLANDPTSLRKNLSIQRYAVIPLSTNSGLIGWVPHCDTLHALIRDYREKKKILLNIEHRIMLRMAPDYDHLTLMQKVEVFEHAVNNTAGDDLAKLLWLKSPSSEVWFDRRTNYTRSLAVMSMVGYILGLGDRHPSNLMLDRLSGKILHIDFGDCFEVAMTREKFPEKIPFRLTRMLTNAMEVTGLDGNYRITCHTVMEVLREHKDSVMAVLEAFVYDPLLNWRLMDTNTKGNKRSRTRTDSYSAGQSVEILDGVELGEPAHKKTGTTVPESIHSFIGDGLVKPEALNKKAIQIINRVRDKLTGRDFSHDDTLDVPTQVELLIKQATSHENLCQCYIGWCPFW
Sequence of p110γ (P48736 whole entry): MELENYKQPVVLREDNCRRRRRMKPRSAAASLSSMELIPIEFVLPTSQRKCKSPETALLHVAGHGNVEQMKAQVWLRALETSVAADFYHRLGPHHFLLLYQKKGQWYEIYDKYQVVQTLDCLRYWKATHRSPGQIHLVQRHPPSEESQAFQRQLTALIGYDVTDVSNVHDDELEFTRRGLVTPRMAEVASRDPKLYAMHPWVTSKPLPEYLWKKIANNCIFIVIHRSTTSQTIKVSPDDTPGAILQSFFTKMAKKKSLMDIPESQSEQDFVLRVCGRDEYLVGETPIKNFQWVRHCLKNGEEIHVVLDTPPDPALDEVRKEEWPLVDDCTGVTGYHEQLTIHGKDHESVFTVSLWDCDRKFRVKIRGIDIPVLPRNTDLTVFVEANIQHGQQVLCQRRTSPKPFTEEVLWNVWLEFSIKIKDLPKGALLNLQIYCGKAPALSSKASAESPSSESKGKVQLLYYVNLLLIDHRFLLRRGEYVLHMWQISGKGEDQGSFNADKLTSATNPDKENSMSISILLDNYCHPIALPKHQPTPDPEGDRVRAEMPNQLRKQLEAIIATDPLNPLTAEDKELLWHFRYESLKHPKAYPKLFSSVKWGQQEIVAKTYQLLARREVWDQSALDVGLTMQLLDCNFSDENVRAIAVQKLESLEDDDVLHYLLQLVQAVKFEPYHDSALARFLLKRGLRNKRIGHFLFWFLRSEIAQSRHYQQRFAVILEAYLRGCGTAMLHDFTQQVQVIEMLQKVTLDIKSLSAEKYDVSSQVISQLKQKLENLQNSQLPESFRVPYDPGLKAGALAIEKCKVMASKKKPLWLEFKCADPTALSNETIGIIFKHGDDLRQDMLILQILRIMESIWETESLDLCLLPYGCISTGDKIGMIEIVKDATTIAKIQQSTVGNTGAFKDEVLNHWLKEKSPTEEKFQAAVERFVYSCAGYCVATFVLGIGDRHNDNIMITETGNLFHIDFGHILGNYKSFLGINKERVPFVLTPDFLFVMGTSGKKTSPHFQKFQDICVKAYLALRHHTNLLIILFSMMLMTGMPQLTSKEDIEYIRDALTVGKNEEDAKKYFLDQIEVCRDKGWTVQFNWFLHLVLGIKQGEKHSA
Sequence of p110α/p85α (P42336 whole entry): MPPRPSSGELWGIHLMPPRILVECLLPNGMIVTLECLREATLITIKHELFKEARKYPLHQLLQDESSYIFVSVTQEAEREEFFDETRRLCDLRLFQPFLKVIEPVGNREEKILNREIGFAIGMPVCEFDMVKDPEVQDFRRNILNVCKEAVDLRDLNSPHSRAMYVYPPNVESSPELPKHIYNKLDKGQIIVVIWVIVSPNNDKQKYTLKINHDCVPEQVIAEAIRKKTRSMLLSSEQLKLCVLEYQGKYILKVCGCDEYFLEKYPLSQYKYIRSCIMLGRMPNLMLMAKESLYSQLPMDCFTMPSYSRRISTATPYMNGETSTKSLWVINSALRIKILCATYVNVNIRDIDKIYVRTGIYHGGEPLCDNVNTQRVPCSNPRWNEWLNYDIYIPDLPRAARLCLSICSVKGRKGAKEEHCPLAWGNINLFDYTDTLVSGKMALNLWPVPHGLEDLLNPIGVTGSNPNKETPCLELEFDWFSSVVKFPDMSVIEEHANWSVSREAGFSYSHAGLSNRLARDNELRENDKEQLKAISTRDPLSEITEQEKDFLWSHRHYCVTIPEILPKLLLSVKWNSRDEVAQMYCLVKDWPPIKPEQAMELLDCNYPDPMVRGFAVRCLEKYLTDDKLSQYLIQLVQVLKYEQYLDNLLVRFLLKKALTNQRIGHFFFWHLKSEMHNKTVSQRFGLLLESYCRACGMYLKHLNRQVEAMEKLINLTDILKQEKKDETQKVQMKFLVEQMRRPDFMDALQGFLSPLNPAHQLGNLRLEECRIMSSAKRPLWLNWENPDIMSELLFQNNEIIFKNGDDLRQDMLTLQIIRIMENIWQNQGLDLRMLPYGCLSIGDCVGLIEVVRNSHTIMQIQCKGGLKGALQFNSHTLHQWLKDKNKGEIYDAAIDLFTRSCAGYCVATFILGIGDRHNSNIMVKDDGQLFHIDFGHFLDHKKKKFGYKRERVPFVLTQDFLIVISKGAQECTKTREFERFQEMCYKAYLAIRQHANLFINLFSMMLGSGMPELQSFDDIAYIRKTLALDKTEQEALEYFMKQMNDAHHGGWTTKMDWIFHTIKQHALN
Sequence of p110α/p85α (P27986 whole entry partner): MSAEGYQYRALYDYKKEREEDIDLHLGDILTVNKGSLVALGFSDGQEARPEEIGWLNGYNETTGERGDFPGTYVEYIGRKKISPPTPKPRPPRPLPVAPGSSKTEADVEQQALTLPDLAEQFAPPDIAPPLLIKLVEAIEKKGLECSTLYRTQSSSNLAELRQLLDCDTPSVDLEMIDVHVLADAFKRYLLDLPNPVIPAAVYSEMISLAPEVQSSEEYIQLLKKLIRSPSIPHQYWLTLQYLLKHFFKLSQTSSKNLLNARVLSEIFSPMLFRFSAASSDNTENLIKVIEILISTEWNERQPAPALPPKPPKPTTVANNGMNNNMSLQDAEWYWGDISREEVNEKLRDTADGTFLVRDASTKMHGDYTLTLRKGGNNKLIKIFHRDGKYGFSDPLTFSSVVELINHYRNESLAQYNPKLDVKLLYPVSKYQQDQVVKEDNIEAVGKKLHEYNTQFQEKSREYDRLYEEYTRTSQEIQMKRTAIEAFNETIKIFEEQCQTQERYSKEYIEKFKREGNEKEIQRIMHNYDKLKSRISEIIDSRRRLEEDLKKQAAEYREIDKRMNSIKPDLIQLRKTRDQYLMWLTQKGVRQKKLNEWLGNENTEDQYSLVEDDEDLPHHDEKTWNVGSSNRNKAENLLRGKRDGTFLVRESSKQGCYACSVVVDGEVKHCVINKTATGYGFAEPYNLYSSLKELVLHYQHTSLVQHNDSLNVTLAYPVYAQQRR

O=C(NOC[C@H](O)CO)c1ccc(F)c(F)c1Nc1ccc(I)cc1F [PD0325901, reference compound]
Cell cycle arrest, single inhibitor versus DMSO control (HCT116 cells): some increase in cell cycle arrest by comparison to DMSO control

CO[C@H]1C[C@@H]2CC[C@@H](C)[C@@](O)(O2)C(=O)C(=O)N2CCCC[C@H]2C(=O)O[C@H]([C@H](C)C[C@@H]2CC[C@@H](OCCO)[C@H](OC)C2)CC(=O)[C@H](C)/C=C(\C)[C@@H](O)[C@@H](OC)C(=O)[C@H](C)C[C@H](C)/C=C/C=C/C=C/1C [RAD001]
Effect on lupus symptoms [1]: ameliorate lupus symptoms

O=C(O)CCCc1ccc(N(CCCl)CCCl)cc1 [chlorambucil, 4-[bis(2-chloroethyl)amino]benzenebutanoic acid]
Chemical stability of reference compound [2]: largely hydrolyzed over the course of 24 hours

Nc1nc2cc(-c3ccc4ncc(-c5ccncc5)n4c3)ccc2o1 [compound 6]
IC50 (p110β/p85α): < 10000 nM
IC50 (p110δ/p85α): < 1000 nM
IC50 ([3]; read-out: T47D proliferation): < 1000 nM
IC50 (p110γ): < 100 nM
IC50 (p110α/p85α): < 100 nM
IC50 ([4]; read-out: PC3 proliferation (nM)*): < 10000 nM
IC50 (recombinant mTOR): < 10000 nM

Nc1nc2cc(-c3ccc4ncc(C(=O)N5CCOCC5)n4c3)ccc2o1 [compound 54]
Arrested cells (pre-GO/G1), percent of the total (HCT116 cells; 3 μM compound 54 combined with 0.3 μM MEK inhibitor (PD0325901), 20 hours, FIG. 7): 55%
Cell cycle arrest, single inhibitor versus DMSO control (HCT116 cells): some increase in cell cycle arrest by comparison to DMSO control
Combination effect with other (MEK) inhibitors (HCT116 cells; compound 54 plus MEK inhibitor): synergistic
Arrested cells expected by merely adding the individual effects (HCT116 cells; sum of 3 μM compound 54 alone and 0.3 μM MEK inhibitor alone, 20 hours): 40%
Impact on blood glucose ([5]; MDA-MB-361 tumor-bearing nude mice, daily oral dosing, FIG. 4): without the impact on blood glucose
Kinase- and tumor growth-inhibition activity ([5]; MDA-MB-361 tumors in nude mice, 30 mpk or 60 mpk test compound, 70 mpk Pan-PI3K inhibitor, daily oral lavage, FIG. 4): comparable kinase- and tumor growth-inhibition activity to the Pan-PI3K inhibitor
Localization/viability of marginal zone B cells in the spleen ([5]; at conclusion of treatment, FIG. 5): does not affect localization/viability of marginal zone B cells
Inhibition of the PI3K pathway (downstream signaling markers) [6]: inhibits the PI3K pathway
Inhibition of proliferation of tumor cells with a PI3Kα mutation ([3]; FIG. 2): inhibits the PI3K pathway and the proliferation of tumor cells with a PI3Kα mutation
IC50 ([3]; read-out: T47D proliferation): < 10000 nM
IC50 (p110γ): < 10000 nM
Specificity of PI3K α inhibition versus PI3K β, δ and γ (IC50, FIG. 1 / FIG. 3) (p110α/p85α; PI3K α compared with β, δ, γ): Inhibition of PI3K α at lower concentrations than those for β, δ, and γ; also recorded: specificity for PI3K α inhibition
Anti-tumor activity in 786-O tumors [7]: still showing some anti-tumor activity, has decreased activity by comparison to that seen in the MDA derived tumors
Potency of angiogenesis inhibition (tube formation) compared with Pan-PI3K inhibitor [8]: comparable to higher potency

CC(=O)Nc1nc2ccc(-c3ccc4oc(N)nc4c3)cc2s1 [compound 231]
IC50 (p110β/p85α; in vitro): < 1000 nM
IC50 (p110δ/p85α; in vitro): < 100 nM
IC50 [3, 12]: < 1000 nM
IC50 (p110γ; in vitro): < 100 nM
IC50 (p110α/p85α; in vitro): < 100 nM
IC50 [4, 13]: < 10000 nM
IC50 (recombinant mTOR; in vitro): < 10000 nM

CC(=O)Nc1cn2cc(-c3ccc4oc(N)nc4c3)ccc2n1 [compound 234]
IC50 (p110β/p85α; in vitro): < 1000 nM
IC50 (p110δ/p85α; in vitro): < 100 nM
IC50 [3, 12]: < 1000 nM
IC50 (p110γ; in vitro): < 100 nM
IC50 (p110α/p85α; in vitro): < 100 nM
IC50 [4, 13]: < 100 nM
IC50 (recombinant mTOR; in vitro): < 1000 nM

Cc1ccc(NC(=O)c2ccc(CN3CCN(C)CC3)cc2)cc1Nc1nccc(-c2cccnc2)n1 [imatinib]
Effect on leukemogenesis [9]: delay but not cure leukemogenesis

CC(C)[N+](C)(CCOC(=O)C1c2ccccc2Oc2ccccc21)C(C)C [propantheline]
Plasma stability of control compounds [10]: intermediate plasma stability

CCCOc1cc(N)ccc1C(=O)OCCN(CC)CC [propoxycaine]
Plasma stability of control compounds [10]: low plasma stability

CO[C@H]1C[C@@H]2CC[C@@H](C)[C@@](O)(O2)C(=O)C(=O)N2CCCC[C@H]2C(=O)O[C@H]([C@H](C)C[C@@H]2CC[C@@H](O)[C@H](OC)C2)CC(=O)[C@H](C)/C=C(\C)[C@@H](O)[C@@H](OC)C(=O)[C@H](C)C[C@H](C)/C=C/C=C/C=C/1C [rapamycin]
anti-CD3 mediated Akt -S473 phosphorylation [11]: enhances Akt phosphorylation
anti-CD3 mediated S6 phosphorylation [11]: inhibits S6 phosphorylation
